Consider one compound from paper PMC11376040, “A novel PDHK inhibitor restored cognitive dysfunction and limited neurodegeneration without affecting amyloid pathology in 5xFAD mouse, a model of Alzheimer’s disease” (Alzheimer's Research & Therapy, 2024).

Experiment in all cases: PDH-coupled PDHK assay (residual PDH activity, NADH absorbance at […] nm), […] ATP
Common to all, as to type: biochemical

The target of test [1] is T1, human PDHK1 (hPDHK1, pyruvate dehydrogenase kinase 1) (Homo sapiens, UniProt Q15118).
T1 construct: gene PDK1; recombinant, Flag-tag at the N-terminus; with PDH enzyme derived from porcine heart (PDH/PDHK complex)
T1 sequence (Q15118 29-436): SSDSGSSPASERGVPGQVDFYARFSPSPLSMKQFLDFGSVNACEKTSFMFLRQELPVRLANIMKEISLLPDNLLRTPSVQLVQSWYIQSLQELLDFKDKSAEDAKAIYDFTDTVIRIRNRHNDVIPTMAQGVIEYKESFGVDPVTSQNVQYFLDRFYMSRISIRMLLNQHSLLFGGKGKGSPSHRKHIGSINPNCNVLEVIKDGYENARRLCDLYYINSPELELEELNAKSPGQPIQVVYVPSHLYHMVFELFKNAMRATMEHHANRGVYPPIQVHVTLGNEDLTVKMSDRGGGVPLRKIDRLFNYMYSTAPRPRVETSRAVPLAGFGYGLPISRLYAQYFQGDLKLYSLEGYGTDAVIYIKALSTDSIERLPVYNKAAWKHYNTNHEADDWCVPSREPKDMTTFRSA

The target in test [2] is T2, human PDHK3 (hPDHK3, pyruvate dehydrogenase kinase 3) (Homo sapiens, UniProt Q15120).
T2 construct: gene PDK3; recombinant, Flag-tag at the N-terminus; with PDH enzyme derived from porcine heart (PDH/PDHK complex)
T2 sequence (Q15120 whole entry): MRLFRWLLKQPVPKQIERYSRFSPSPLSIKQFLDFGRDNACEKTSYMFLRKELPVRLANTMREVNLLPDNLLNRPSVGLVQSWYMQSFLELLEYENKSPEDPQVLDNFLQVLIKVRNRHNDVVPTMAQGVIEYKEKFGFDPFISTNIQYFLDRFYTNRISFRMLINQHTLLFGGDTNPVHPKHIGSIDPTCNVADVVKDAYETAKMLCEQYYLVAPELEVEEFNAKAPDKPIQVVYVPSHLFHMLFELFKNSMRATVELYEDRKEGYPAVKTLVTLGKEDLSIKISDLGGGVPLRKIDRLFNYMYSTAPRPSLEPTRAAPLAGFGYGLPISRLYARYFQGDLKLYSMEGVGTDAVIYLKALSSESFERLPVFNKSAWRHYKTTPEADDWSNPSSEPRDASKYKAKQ

Test [3] concerns the target T3, human PDHK2 (hPDHK2, pyruvate dehydrogenase kinase 2) (Homo sapiens, UniProt Q15119).
T3 construct: gene PDK2; recombinant, Flag-tag at the N-terminus; with PDH enzyme derived from porcine heart (PDH/PDHK complex)

Each structure is given as a SMILES string.

A word on the IC50: it is the concentration needed to halve the response being measured. Read a low IC50 as inhibition by little substance. `C[C@H]1CN(C(=O)c2c(F)cc(C#N)cc2F)Cc2cnc([C@@](C)(O)C(F)(F)F)n21` [Compound A]: the IC50 in test [1] was 8.17 ± 0.56 nM; in test [2], 50.5 ± 3.23 nM; in test [3], 5.33 ± 0.12 nM.
